Experimental data taken from patent publication US20080076786A1, “USE OF RADICAL-SCAVENGING COMPOUNDS FOR TREATMENT AND PREVENTION OF NO-DEPENDENT MICROCIRCULATION DISORDERS” (priority 2001, published 2008).

Experiments:
lipid peroxidation = conditions: human nonneoplastic lung tissue; cited from earlier work
NO Synthetase = NO Synthetase knock-out mice, NO synthetase activity blocked or partially inhibited; format: in vivo; conditions: NO Synthetase activity blocked or reduced; compared with pravastatin on elevating NO production
[1] = test system: oxygen radicals and proteinuria; conditions: experimental animals with aminonucleoside nephropathy; cited from earlier work
stroke risk = conditions: ESPS-2, compared with low-dose aspirin / aspirin alone; cited from earlier work
[2] = test system: reoccurrence of myocardial infarcts (MI); conditions: chronic application, published meta analysis; cited from earlier work

OCCN(CCO)c1nc(N2CCCCC2)c2nc(N(CCO)CCO)nc(N3CCCCC3)c2n1 [Dipyridamole, 2,6-bis(diethanolamino)-4,8-dipiperidino-pyrimido[5,4-d]pyrimidine]
lipid peroxidation (lipid peroxidation): Inhibition of lipid peroxidation
effect of NO sparing (preventing NO destruction) (NO Synthetase): seen as independent effect
oxygen radicals and proteinuria [1]: suppress oxygen radicals and proteinuria
reduction of stroke risk (stroke risk): as effective as low-dose aspirin

CC(=O)Oc1ccccc1C(=O)O [Aspirin, acetyl salicylic acid]
reduction of the incidence of reoccurrence of myocardial infarcts [2]: 18%
